Test results from US5698444A (Eli Lilly and Company, priority 1993, dated 1997).
pIC50: −log10 of the molar value. Where two headings read alike, the source gives them in different places.

Molecular target: T1, human 5-HT2B receptor (Homo sapiens, UniProt P41595)
T1 construct: expressed in transfected cells
Assay: competition assay: inhibition of binding of [3H]5-hydroxytryptamine to the cloned human 5-HT2B receptor (cell membranes)

T1 sequence (P41595 whole entry): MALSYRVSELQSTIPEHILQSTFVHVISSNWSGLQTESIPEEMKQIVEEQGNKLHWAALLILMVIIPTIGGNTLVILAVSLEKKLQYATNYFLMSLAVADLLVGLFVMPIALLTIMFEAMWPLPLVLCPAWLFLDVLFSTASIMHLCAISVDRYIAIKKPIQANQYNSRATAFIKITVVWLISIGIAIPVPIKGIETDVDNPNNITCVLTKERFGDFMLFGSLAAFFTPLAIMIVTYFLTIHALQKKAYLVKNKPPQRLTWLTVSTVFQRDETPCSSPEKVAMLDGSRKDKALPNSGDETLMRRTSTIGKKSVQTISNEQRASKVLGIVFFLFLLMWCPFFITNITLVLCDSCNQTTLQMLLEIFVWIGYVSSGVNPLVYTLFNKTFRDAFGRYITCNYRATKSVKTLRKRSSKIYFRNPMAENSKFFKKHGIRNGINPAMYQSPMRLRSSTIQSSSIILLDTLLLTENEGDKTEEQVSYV

SMILES | pIC50 | pIC50 (read-out: IC50 (concentration which displaces or inhibits the binding of 50% of the labeled 5-hydroxytryptamine))
c1ccc2c(N3CCNCC3)cccc2c1 [1-(1-naphthyl)piperazine, 1-(1-Naphthyl)piperazine] | 8.62 | 
O=C(CCCN1CCC2(CC1)C(=O)NCN2c1ccccc1)c1ccc(F)cc1 [spiperone, 8-[4-(4-fluorophenyl)4-oxobutyl]-1-phenyl-1,3,8-triazaspiro[4,5]decan-4-one] |  | 6.16
CC(N)Cc1c[nH]c2ccc(O)cc12 (stereo not drawn) [α-methyl-5-hydroxytryptamine, 3-(2-aminopropyl)-1H-indol-5-ol] | 7.93 | 
